These are literature values, as cited in patent US6455086B1, “Microorganism reduction methods and compositions for food cleaning” (The Procter & Gamble Company, priority 1999, dated 2002).

Counter-ions that a name gives are not always drawn.

Data set [1] concerns typical Gram negative and positive bacteria, fungi and yeasts. The conditions noted are these: used at a level from about 0.001% to about 0.5% by weight of the usage composition.

In the case of `Cn1sc2c(c1=O)CCC2` [Promexal, 2-methyl-4,5-trimethylene4-isothiazolin-3-one], the “effectiveness against typical Gram negative and positive bacteria, fungi and yeasts” value in data set [1] is “effective”.

As to `O=c1[nH]sc2ccccc12` [Proxel, 1,2-benzisothiazolin-3-one], in data set [1], the “effectiveness against typical Gram negative and positive bacteria, fungi and yeasts” value is reported as “effective”.

On to `[H]/N=C(\N/C(=N/[H])NCCCCCCNC(=N)NC(=N)Nc1ccc(Cl)cc1)Nc1ccc(Cl)cc1` [chlorhexidine diacetate salt, 1,1′-hexamethylene bis(5-(p-chlorophenyl)biguanide)], for which the solubility in water result is recorded as “about 1.8%”.

Take `[H]/N=C(\N/C(=N/[H])NCCCCCCNC(=N)NC(=N)Nc1ccc(Cl)cc1)Nc1ccc(Cl)cc1` [chlorhexidine digluconate salt, 1,1′-hexamethylene bis(5-(p-chlorophenyl)biguanide)]: the solubility in water result is recorded as “about 70%”.
